The source of these data is patent US10933045B2, “Intranasal compositions for treatment of neurological and neurodegenerative diseases and disorders” (priority 2014, dated 2021).

One series concerns the target acetylcholinesterase (Homo sapiens, UniProt P22303). The settings on record: estimated (Gobburu et al. 2001); cited from earlier work.
The target in series [1] is T1, sigma one receptor (Rattus norvegicus, UniProt Q9R0C9).
T1 construct: host or cells: rat brain
As to the kind of experiment: Dextromethorphan binding studies with rat brain (Klein and Musacchio 1992).

Series [2] deals with T1, sigma one receptor. The note with it: read-out: dissociation constant (Kd); binding studies with rat brain; cited from earlier work.
For series [3] the following is noted: assumed value from literature; cited from earlier work.
For series [4] the following is noted: cited from earlier work.
Setting [5] is: Alzheimer's disease patients, 2 mg i.v. dose (Hossain et al. 2002).

Read-outs that look alike come from different tables or passages of the source.

T1 sequence (Q9R0C9 whole entry): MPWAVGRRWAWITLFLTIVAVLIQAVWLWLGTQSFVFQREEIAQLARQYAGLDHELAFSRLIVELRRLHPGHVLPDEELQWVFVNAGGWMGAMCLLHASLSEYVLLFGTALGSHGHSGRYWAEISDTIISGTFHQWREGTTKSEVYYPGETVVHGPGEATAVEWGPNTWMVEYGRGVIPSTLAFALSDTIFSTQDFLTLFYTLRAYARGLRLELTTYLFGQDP
Chain of acetylcholinesterase (P22303 32-614): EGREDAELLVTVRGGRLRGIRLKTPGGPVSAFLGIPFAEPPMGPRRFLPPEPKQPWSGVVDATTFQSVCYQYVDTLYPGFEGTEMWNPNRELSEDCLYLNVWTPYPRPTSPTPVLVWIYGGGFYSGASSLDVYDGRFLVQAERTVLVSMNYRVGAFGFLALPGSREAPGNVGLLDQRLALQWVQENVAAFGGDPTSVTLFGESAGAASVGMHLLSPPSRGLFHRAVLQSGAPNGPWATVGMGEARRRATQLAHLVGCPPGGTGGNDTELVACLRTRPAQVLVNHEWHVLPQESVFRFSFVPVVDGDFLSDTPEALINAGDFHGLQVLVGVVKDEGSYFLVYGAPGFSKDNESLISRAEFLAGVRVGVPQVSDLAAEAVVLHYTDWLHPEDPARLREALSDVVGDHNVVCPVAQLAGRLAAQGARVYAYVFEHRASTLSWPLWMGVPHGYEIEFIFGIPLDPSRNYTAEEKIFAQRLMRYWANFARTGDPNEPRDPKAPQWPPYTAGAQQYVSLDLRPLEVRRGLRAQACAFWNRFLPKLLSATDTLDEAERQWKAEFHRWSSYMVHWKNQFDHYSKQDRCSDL

Regarding `C[C@@H](c1cccc(O)c1)N(C)C` [NAP 226-90, 3-[(1S)-1-(dimethylamino)ethyl]phenol], the “potency, times less than rivastigmine” value at acetylcholinesterase is reported as 10 times.
In the case of `COc1ccc2c(c1)[C@]13CCCC[C@@H]1[C@H](C2)N(C)CC3` [dextromethorphan], the Kd at sigma one receptor [1] was about 19.9 nM; at sigma one receptor [2], 20 nM. For the same compound, the systemic clearance result in series [3] was “about 23 mL/min/kg”.
On to `CCN(C)C(=O)Oc1cccc([C@H](C)N(C)C)c1` [rivastigmine, Rivastigmine], for which the “variation of intrinsic clearance (CL)” value in series [4] (Alzheimer's disease patients (Hossain et al. 2002)) is given as “up to 4 fold”. Moreover, in series [4] (setting [5]), the CL is 21.6 to 82.8 L/h and the Vz was 53.2 to 227 L.
